{
  "source": "patent US20210401834A1",
  "about": "(IMBRIA PHARMACEUTICALS, INC., priority 2020, published 2021)",
  "key": {"[1]": {"conditions": "human, in vivo, 200 mg", "excerpt": "The MR formulation of IMB-1018972 to be administered on Day 13 under fed conditions was 1 of the 4 MR formulations administered on Days 1, 4, 7, and 10 under fasted conditions.\nThe effect of food on the relative oral bioavailability of IMB-1018972 following a single oral administration was explored. This occurred in the single-dose MR part where subjects received the same dose, first under fasted conditions and then under fed conditions."}, "[2]": {"conditions": "human, in vivo, 150 mg", "quoted_text": "The blood samples were taken via an indwelling intravenous catheter or by direct venipuncture. The exact times of blood sampling were recorded in the eCRF.\nThe subjects were instructed to empty their bladders completely before study drug administration and at the end of each collection interval. A blank urine sample was collected within 12 hours prior to study drug administration. The exact times of urine collection and the urine weight of the entire interval (before and after addition of any urine stabilizers, if used) were recorded in the eCRF."}, "[3]": {"test": "BCS classification from solubility and permeability", "excerpt": "CV-8972 can therefore be considered as BCS Class 1 per se, but the pre-systemic metabolism to CV-8814 and possibly other metabolites may complicate and impact the actual biopharmaceutical absorption profile found in humans."}, "[4]": {"test": "Decomposition kinetics of CV-8972 in media simulating the GI tract, 37° C., 0.2 mg/mL (HPLC)", "format": "physicochemical", "description": "The solution stability of CV-8972 was evaluated in multiple media currently used to simulate dissolution and stability conditions in the various sections of the GI tract. As CV-8972 will be subject to hydrolysis as it is dissolving in the GI tract, it will be important to understand these kinetics in terms of designing instant and controlled-release formulations. HPLC methods were used to perform these assessments."}, "[5]": {"test": "Phase 1 FIH study, multiple-dose MR part: safety and tolerability", "format": "in vivo, human", "quoted_text": "(§1) AEs were recorded from (first) admission until completion of the follow-up visit. Any clinically significant observations in results of clinical laboratory, 12-lead ECGs, vital signs, or physical examinations were recorded as AEs.\n(§2) A treatment-emergent AE (TEAE) was defined as any event not present prior to (the first) administration of the study drug or any event already present that worsened in either severity or frequency following exposure to the study drug.\n(§3) The severity of the AEs was rated as mild, moderate, or severe; the relationship between the AEs and the study drug was indicated as none, unlikely, possibly, likely, or definitely. Adverse events assessed as possibly, likely, or definitely were considered related to the study drug; AEs assessed as none or unlikely were considered not related to the study drug."}, "[6]": {"test": "Phase 1 FIH study: overall safety (vital signs, 12-lead ECG)", "format": "in vivo, human", "conditions": "after administration as the MR formulations, healthy subjects", "description": "These assessments were made using an automated device. Body temperature and respiratory rate were measured subsequently.\nSafety and tolerability were assessed through AEs, clinical laboratory, vital signs, ECGs, continuous cardiac monitoring (telemetry), and physical examination findings, and any other parameter that was relevant for safety assessment."}, "[7]": {"test": "Phase 1 FIH study, single-dose MR part: safety and tolerability", "format": "in vivo, human", "quoted_text": "as §1, §2, §3"}, "[8]": {"test": "pH stability profile of a 1 mg/mL solution of CV-8972 at 23° C.", "format": "physicochemical", "description": "The pH stability profile is summarized and shown in Table 2 for a 1 mg/mL solution of CV-8972 at 23° C.\nThe hydrolysis proceeds via the first step shown in FIG. 1, as Nicotinic acid and CV-8814 are the only decomposition products generated. The optimal pH for solution stability appears to be around pH 5-5.1 for a 1 mg/mL solution with acid-catalyzed hydrolysis increasing at pH values less than 5.0 and base-catalyzed hydrolysis increasing above pH 5.0."}},
  "note": "Read-outs that look alike come from different tables or passages of the source.",
  "data": [
    {"smiles": "COc1ccc(CN2CCN(CCO)CC2)c(OC)c1OC", "note": "[CV-8814, 2-[4-[(2,3,4-trimethoxyphenyl)methyl]piperazin-1-yl]ethanol]", "values": [
      {"measurement": "Cmax higher under fed relative to fasted conditions", "setting": "[1]", "result": "approximately 42%"},
      {"measurement": "effect of food on exposure parameters AUC0-t and AUC0-inf", "setting": "[1]", "result": "No evidence for an effect of food"},
      {"measurement": "food effect estimate for AUC0-inf (ratio of geometric means fed/fasted)", "setting": "[1]", "result": 1.16},
      {"measurement": "food effect estimate for AUC0-t (ratio of geometric means fed/fasted)", "setting": "[1]", "result": 1.16},
      {"measurement": "food effect estimate for Cmax (ratio of geometric means fed/fasted)", "setting": "[1]", "result": 1.42},
      {"measurement": "Cmax lower under fed relative to fasted conditions", "setting": "[2]", "result": "approximately 36%"},
      {"measurement": "effect of food on exposure parameters AUC0-t and AUC0-inf", "setting": "[2]", "result": "No evidence for an effect of food"}
    ]},
    {"smiles": "COc1ccc(CN2CCN(CCOC(=O)c3cccnc3)CC2)c(OC)c1OC", "note": "[CV-8972, 2-[4-[(2,3,4-trimethoxyphenyl)methyl]piperazin-1-yl]ethyl pyridine-3-carboxylate]", "values": [
      {"measurement": "BCS class", "setting": "[3]", "result": "BCS Class 1"},
      {"measurement": "half-life at 0.2 mg/mL", "setting": "[4]; 0.1M HCl, pH 1, 0.1M HCl, pH 1.0, no surfactants", "result": 3.13, "unit": "h"},
      {"measurement": "half-life at 0.2 mg/mL", "setting": "[4]; FaSSGF, pH 1.6, FaSSGF, pH 1.6", "result": 48.5, "unit": "h"},
      {"measurement": "half-life at 0.2 mg/mL", "setting": "[4]; FaSSIF, pH 6.5, FaSSIF, pH 6.5", "result": 13.5, "unit": "h"},
      {"measurement": "half-life at 0.2 mg/mL", "setting": "[4]; FeSSIF (medium simulating the GI tract), pH 5.8, FeSSIF, pH 5.8", "result": 99.6, "unit": "h"},
      {"measurement": "half-life at 0.2 mg/mL", "setting": "[4]; pH 6, BiCarb adj (0.1M HCl neutralized with sodium bicarbonate), pH 6-8.2", "result": 1.52, "unit": "h"},
      {"measurement": "subjects reporting TEAEs", "setting": "[5]; 200 mg 8-hour MR formulation q12h fed, 5 days, 12 subjects", "result": 100, "unit": "%"},
      {"measurement": "number of drug-related TEAEs of flushing (vascular disorders)", "setting": "[5]; multiple-dose MR part", "result": 2},
      {"measurement": "subjects with TEAEs considered not related to the study drug", "setting": "[5]; multiple-dose MR part", "result": 75, "unit": "%"},
      {"measurement": "subjects with TEAEs considered related to the study drug", "setting": "[5]; multiple-dose MR part", "result": 58.3, "unit": "%"},
      {"measurement": "subjects with TEAEs, SOC gastrointestinal disorders", "setting": "[5]; multiple-dose MR part", "result": 41.7, "unit": "%"},
      {"measurement": "subjects with TEAEs, SOC general disorders and administration site conditions", "setting": "[5]; multiple-dose MR part", "result": 33.3, "unit": "%"},
      {"measurement": "subjects with TEAEs, SOC musculoskeletal and connective tissue disorders", "setting": "[5]; multiple-dose MR part", "result": 33.3, "unit": "%"},
      {"measurement": "subjects with TEAEs, SOC nervous system disorders", "setting": "[5]; multiple-dose MR part", "result": 58.3, "unit": "%"},
      {"measurement": "subjects with TEAEs, SOC renal and urinary disorders (pollakiuria)", "setting": "[5]; multiple-dose MR part", "result": 33.3, "unit": "%"},
      {"measurement": "subjects with drug-related TEAEs of flushing (vascular disorders)", "setting": "[5]; multiple-dose MR part", "result": 16.7, "unit": "%"},
      {"measurement": "subjects with drug-related TEAEs of pollakiuria", "setting": "[5]; multiple-dose MR part", "result": 33.3, "unit": "%"},
      {"measurement": "subjects with drug-related TEAEs, nervous system disorders", "setting": "[5]; multiple-dose MR part", "result": 16.7, "unit": "%"},
      {"measurement": "hemodynamic changes and QTc-interval", "setting": "[6]", "result": "no findings of hemodynamic changes, nor changes in the QTc-interval"},
      {"measurement": "number of TEAEs of mild severity", "setting": "[7]; of 37 TEAEs", "result": "Thirty-six"},
      {"measurement": "number of TEAEs of moderate severity", "setting": "[7]; of 37 TEAEs", "result": 1},
      {"measurement": "tolerability", "setting": "[7]; single doses of 50 mg and 200 mg MR formulations (4-hour, 8-hour) fasted, 200 mg 8-hour MR fed, healthy subjects", "result": "well tolerated"},
      {"measurement": "subjects with TEAEs considered not related to the study drug", "setting": "[7]; single-dose MR part", "result": 83.3, "unit": "%"},
      {"measurement": "subjects with TEAEs considered related to the study drug", "setting": "[7]; single-dose MR part", "result": 33.3, "unit": "%"},
      {"measurement": "subjects with TEAEs, SOC gastrointestinal disorders", "setting": "[7]; single-dose MR part", "result": 33.3, "unit": "%"},
      {"measurement": "subjects with TEAEs, SOC general disorders and administration site conditions", "setting": "[7]; single-dose MR part", "result": 58.3, "unit": "%"},
      {"measurement": "subjects with TEAEs, SOC nervous system disorders", "setting": "[7]; single-dose MR part", "result": 58.3, "unit": "%"},
      {"measurement": "subjects with drug-related TEAEs of pollakiuria", "setting": "[7]; single-dose MR part", "result": 16.7, "unit": "%"},
      {"measurement": "subjects reporting TEAEs", "setting": "[7]; single-dose MR part, 12 subjects", "result": 83.3, "unit": "%"},
      {"measurement": "half-life at 1 mg/mL", "setting": "[8]; 20 mM ammonium acetate buffer, pH 5.05, 20 mM Am. Acetate", "result": 658, "unit": "h"},
      {"measurement": "half-life at 1 mg/mL", "setting": "[8]; 20 mM phosphate buffer, pH 3.52, 20 mM Phos", "result": 254, "unit": "h"},
      {"measurement": "half-life at 1 mg/mL", "setting": "[8]; 20 mM phosphate buffer, pH 6.5, 20 mM Phos", "result": 61.9, "unit": "h"},
      {"measurement": "half-life at 1 mg/mL", "setting": "[8]; 20 mM phosphate buffer, pH 6.88, 20 mM Phos", "result": 33.6, "unit": "h"},
      {"measurement": "1st order Kobs", "setting": "[8]; pH 2.74, Water", "result": 0.00516, "unit": "hr − 1"},
      {"measurement": "half-life at 1 mg/mL", "setting": "[8]; pH 2.74, Water", "result": 134, "unit": "h"},
      {"measurement": "1st order Kobs", "setting": "[8]; pH 3.52, 20 mM Phos", "result": 0.00273, "unit": "hr − 1"},
      {"measurement": "1st order Kobs", "setting": "[8]; pH 5.05, 20 mM Am. Acetate", "result": 0.00105, "unit": "hr − 1"},
      {"measurement": "1st order Kobs", "setting": "[8]; pH 5.64, 20 mM Phos", "result": 0.00248, "unit": "hr − 1"},
      {"measurement": "1st order Kobs", "setting": "[8]; pH 6.5, 20 mM Phos", "result": 0.01119, "unit": "hr − 1"},
      {"measurement": "1st order Kobs", "setting": "[8]; pH 6.88, 20 mM Phos", "result": 0.02064, "unit": "hr − 1"},
      {"measurement": "half-life at 1 mg/mL", "setting": "[8]; phosphate buffer, pH 5.64, 20 mM Phos", "result": 280, "unit": "h"}
    ]},
    {"smiles": "COc1ccc(CN2CCNCC2)c(OC)c1OC", "note": "[trimetazidine, reference compound]", "values": [
      {"measurement": "effect of food on exposure parameters Cmax, AUC0-t and AUC0-inf", "setting": "[1]", "result": "No evidence for an effect of food"},
      {"measurement": "food effect estimate for AUC0-inf (ratio of geometric means fed/fasted)", "setting": "[1]", "result": 0.97},
      {"measurement": "food effect estimate for AUC0-t (ratio of geometric means fed/fasted)", "setting": "[1]", "result": 0.99},
      {"measurement": "food effect estimate for Cmax (ratio of geometric means fed/fasted)", "setting": "[1]", "result": 1.10},
      {"measurement": "effect of food on exposure parameters Cmax, AUC0-t and AUC0-inf", "setting": "[2]", "result": "No evidence for an effect of food"}
    ]}
  ]
}
